Results from patent US20260234135A1, “CRYSTALLINE FORMS OR SALTS OF A DEUTERATED COMPOUND” (ALEBUND PHARMACEUTICALS (HONG KONG) LIMITED, priority 2023, published 2026).

Assays:
[1] = system: diabetic nephropathy model; experiment: Diabetic nephropathy pharmacodynamic model (uninephrectomized db/db mice); format: in vivo, db/db: BLKS male mice
Source text: At the age of 6 weeks, db/db mice were anesthetized with 2.5% […] and subjected to uninephrectomy with removal of right kidney. Buprenorphine was applied after surgery.
11.1.2 Procedure. Two weeks after surgery, db/db mice were randomly assigned into 5 groups. Wild type mice were used for the control animals. […] Compounds were orally administrated once per day for 10 weeks.
At the 5th and 9th week after compound administration, mice were placed in metabolic cages for urine collection. Albumin level was measured for 24 hr albumin excretion calculation. At the 10th week after treatment, the animals were sacrificed for kidney dissection. The kidney was fixed in 10% neutral buffed formalin, then paraffin-embedded for histopathological analysis. Glomerulosclerosis was assessed by evaluating glomerular basement membrane, mesangial expansion, nodular sclerosis and glomerulosclerosis. Severity was graded as follows: 0: normal; 1: Glomerular basement membrane thickening: isolated glomerular basement membrane thickening and only mild, nonspecific changes by light microscopy; 2: Mesangial expansion mild (IIa) or severe (IIb): glomeruli with mild or severe mesangial expansion but without nodular sclerosis or global glomerulosclerosis in more than 50% of glomeruli; 3: Nodular sclerosis: at least one glomerulus with nodular increase in mesangial matrix; 4: Advanced diabetic glomerulosclerosis: more than 50% global glomerulosclerosis with other clinical or pathological evidence that sclerosis is attributable to diabetic nephropathy. Renal tubular injury was scored as follows: 0: no obvious lesions; 1: up to 25% involvement of tubular lesion; 2: lesion in 25% to 50% of renal tubular; 3: 50% to 75% of renal tubular lesion and grade 4: >75% tubular lesion.
Graphpad 8.0 software was used for statistical analysis. The difference between the values were analyzed with one-way ANOVA. The difference between histopathological score was analyzed with Kruskal-Wallis nonparameter test. All values were compared with the group 2.

[2] = system: rat model of hyperlipidemia induced by high cholesterol diet; experiment: Rat model of hyperlipidemia induced by high cholesterol diet (serum TG, NEFA); format: in vivo, Sprague-Dawley rats; details: for Serum NEFA compared with the vehicle group / Serum TG compared with the vehicle group: 0.2 mg/kg and 0.6 mg/kg oral, after 7 days of treatment (Day 8)
Source text: 8.2.1 High cholesterol diet (ASHF4) was used to induce an animal model of hyperlipidemia in the SD rats.
8.2.2 The male SD rats were fed with high cholesterol diet (ASHF4, Dyet, China) for 14 days. On the day before the start of the administration (Day 0), the animals were divided into 5 groups based on body weights and serum indicators and were continually fed with the high-cholesterol diet. The treatment groups were orally dosed with either compound or vehicle while continuing the high-cholesterol diet for a total of 1 week. The animals were weighed daily before the treatment, and the compounds were given at 9:00-9:30 in the morning based on the body weight of the day.
8.2.3 Animal blood was collected, and serum was separated for the analysis of serum lipid indicators on the day before the treatment and at the end of the last day for the experiment.
8.2.4 Serum indicators of triglyceride (TG) and free fatty acid (NEFA) were determined by an automatic blood biochemical analyzer.

[3] = system: rat model of unilateral ureteral obstruction; experiment: Rat model of unilateral ureteral obstruction, renal injury; details: 0.2 mg/kg oral daily, 14 treatment days
Method: Housing temperature was maintained at 20-26° C. and humidity at 40%-60%. Rats were fed with a standard chow and allowed to access food and water ad libitum.
The formulation was prepared twice a week.
Vehicle or compounds were administrated by orally gavage daily. Unilateral ureteral obstruction was performed on the second day of compound treatment. Animals in model group, reference group and compound group underwent urethral ligation under isoflurane anesthesia one hour after receiving compound administration. A flank incision was cut to expose the left ureter, and a 4-0 surgical suture was used to perform two-point ligation to achieve urethral obstruction. Ureter was cut between the two ligation points. Animals in the control group were subjected to the same surgical treatment except the ligation and cut. After surgery, animals in each group continually received vehicle or compound for 12 more days, for a total of 14 treatment days.
Rats were sacrificed after 14 days' compound treatment. The obstructed kidney was weighed and collected for histology. The tissue samples were fixed with formalin, and then paraffin embedded. The embedded tissue was sectioned and stained with hematoxylin & eosin and Masson trichrome to assess kidney structure and fibrosis.
The multiple comparison was analyzed with the Kruskal-Wallis non-parameter test. […]

[4] = 7-day repeated oral gavage, body weights of ICR mice; format: in vivo; details: for Weight Gain (g) compared with Day 0: n = 10
Source text: 50 male ICR mice aged 6-8 weeks; source: Laboratory Animal Business Department, Shanghai Institute of Planned Parenthood Research.
After 3 days of acclimatization, ICR mice were grouped according to their body weights. The day of grouping is designated as Day 0. […] The animals were weighed and recorded daily.

[5] = system: db/db type 2 diabetes model; experiment: Oral glucose tolerance test (OGTT) in db/db animals; format: in vivo, db/db mice; details: for OGTT blood glucose levels at each time point compared with the vehicle group: within 120 minutes, different dosages
Method: At the end of the experiment, oral glucose tolerance tests were carried out on the db/db animals treated by different compounds. […] .

[6] = system: db/db type 2 diabetes model; experiment: db/db type 2 diabetes model (body weight, serum TG, random blood glucose); details: for Serum TG levels compared with the vehicle group / Average daily body weights compared with the vehicle group: Aleglitazar 0.2 mg/kg; for Serum TG levels compared with the vehicle group: Compound 2 at different dosages; for Average daily body weights compared with the vehicle group: Day 10 to Day 15, Compound 2 0.05, 0.2, 1 mg/kg; for Level of lipid, free fatty acid and blood glucose compared with vehicle group: summary, all groups
Source text: 45 Db/db mice were evenly divided into 5 groups before the initiation of treatment based on the body weights, serum triglyceride (TG) levels, and random blood glucose levels.
All animals were weighed daily before each dosing and treated daily for 14 consecutive days.
All the data was imported into an Excel file and presented as Mean±SEM. Graphpad Prism 7.0 software was used for data statistical analysis by One-way or Two-way ANOVA, with P<0.05 as the criterion of significant differences.

[7] = Inter-conversion relationship (slurry competition) and form stability of free acid forms; details: storage at RT for 1 month, XRPD
[8] = phase 3 clinical trials; cited from earlier work
[9] = Day 8, 0.2 mg/kg oral QDx7 days
[10] = Day 8, 0.6 mg/kg oral QDx7 days
[11] = 0.2 mg/kg oral QDx7 days, Day 1, ICR mice
[12] = 0.2 mg/kg oral QDx7 days, Day 2, ICR mice
[13] = 0.2 mg/kg oral QDx7 days, Day 3, ICR mice
[14] = 0.2 mg/kg oral QDx7 days, Day 4, ICR mice
[15] = 0.2 mg/kg oral QDx7 days, Day 5, ICR mice
[16] = 0.2 mg/kg oral QDx7 days, Day 6, ICR mice
[17] = 0.2 mg/kg oral QDx7 days, Day 7, ICR mice
[18] = 1 mg/kg oral QDx7 days, Day 1, ICR mice
[19] = 1 mg/kg oral QDx7 days, Day 2, ICR mice
[20] = 1 mg/kg oral QDx7 days, Day 3, ICR mice
[21] = 1 mg/kg oral QDx7 days, Day 4, ICR mice
[22] = 1 mg/kg oral QDx7 days, Day 5, ICR mice
[23] = 1 mg/kg oral QDx7 days, Day 6, ICR mice
[24] = 1 mg/kg oral QDx7 days, Day 7, ICR mice
[25] = 0.2 mg/kg (Aleglitazar P<0.001; Compound 2 P<0.01)

Compound: [2H]C([2H])(Cc1nc(-c2ccccc2)oc1C)Oc1ccc(C[C@H](OC)C(=O)O)c2sccc12 [Compound 2]
- 24-hour urinary albumin ([1]; 5th and 9th weeks after compound administration, 0.1, 0.3, 1 mg/kg oral once per day): significantly decreased
- Glomerular damage and glomerular hypertrophy ([1]; 10 weeks treatment): suppressed the glomerular damage and ameliorate the glomerular hypertrophy
- Renal tubular injury ([1]; all dosage levels): improved the tubular injury at some extend
- Glomerular volume ([1]; high dose (1 mg/kg)): statistically significantly reduced
- Glomerulosclerosis histopathological score ([1]; high dose (1 mg/kg)): statistically significantly reduced
- Serum NEFA compared with the vehicle group [2]: significantly reduce
- Serum TG compared with the vehicle group [2]: significantly reduce
- Serum NEFA compared with Aleglitazar ([2]; 0.2 mg/kg, T-test, P<0.05): significantly reduce
- Serum TG compared with Aleglitazar ([2]; 0.2 mg/kg, T-test, P<0.05): significantly reduce
- serum TG, significance compared with the first group (vehicle), One-way ANOVA [2, 9]: *** (***p < 0.001)
- serum TG, significance compared with the first group (vehicle), One-way ANOVA [2, 10]: *** (***p < 0.001)
- Total score of renal focal lesions compared to the model group [3]: significantly improved
- Weight Gain (g) compared with Day 0 [4, 11]: 0.45 ± 0.28 g
- Weight Gain (g) compared with Day 0 [4, 12]: 1.42 ± 0.22 g
- Weight Gain (g) compared with Day 0 [4, 13]: 2.56 ± 0.23 g
- Weight Gain (g) compared with Day 0 [4, 14]: 2.96 ± 0.23 g
- Weight Gain (g) compared with Day 0 [4, 15]: 3.73 ± 0.34 g
- Weight Gain (g) compared with Day 0 [4, 16]: 4.66 ± 0.39 g
- Weight Gain (g) compared with Day 0 [4, 17]: 5.08 ± 0.42 g
- Daily weight gain compared with the vehicle group ([4]; 0.2 mg/kg, throughout the study): no significant difference
- Weight Gain (g) compared with Day 0 [4, 18]: 0.4 ± 0.17 g
- Weight Gain (g) compared with Day 0 [4, 19]: 1.57 ± 0.26 g
- Weight Gain (g) compared with Day 0 [4, 20]: 2.71 ± 0.19 g
- Weight Gain (g) compared with Day 0 [4, 21]: 3.61 ± 0.19 g
- Weight Gain (g) compared with Day 0 [4, 22]: 3.96 ± 0.29 g
- Weight Gain (g) compared with Day 0 [4, 23]: 4.84 ± 0.4 g
- Weight Gain (g) compared with Day 0 [4, 24]: 5.44 ± 0.36 g
- Weight gain, significance compared with vehicle, One-way ANOVA ([4]; 1 mg/kg, Day 4): ** (**p < 0.01)
- Average daily weight gain compared with the vehicle group ([4]; 1 mg/kg, Day 4 and 5): significantly higher
- Weight gain, significance compared with vehicle, One-way ANOVA ([4]; 1 mg/kg, Day 5): * (* p < 0.05)
- OGTT blood glucose compared with the vehicle group ([5]; 0.05 mg/kg (Group 4), all time points): trend of decrease but did not reach statistical significance
- OGTT AUC0-120 min compared with the vehicle group [5, 25]: significantly lower
- OGTT AUC0-120 min compared with the vehicle group ([5]; 1 mg/kg, P<0.0001): significantly lower
- OGTT AUC0-120 min compared with Aleglitazar ([5]; same dose level (0.2 mg/kg)): higher
- OGTT blood glucose levels at each time point compared with the vehicle group [5]: significantly reduced
- Serum TG, rank of effect among groups ([6]; 1 mg/kg (Group 6), Day 6 and Day 12): largest effect
- statistical difference (p) of the blood glucose level between treatment group and vehicle group ([6]; 0.2 mpk, Day 0, db/db mice): p > 0.05
- Serum TG levels compared with the vehicle group ([6]; Day 6 and Day 12): significantly lower
- Random blood glucose reduction compared with the vehicle group ([6]; Day 7, 1 mg/kg): reached statistical significance
- Average daily body weights compared with the vehicle group [6]: significantly higher
- Random blood glucose lowering compared with the vehicle group ([6]; Day 14, 0.05 mg/kg): did not reach statistical significance
- Random blood glucose lowering vs vehicle, compared with Day 7 ([6]; Day 14, 1 mg/kg): more pronounced effect of blood glucose lowering
- Effect on lowering blood glucose compared with Aleglitazar ([6]; overall): slightly weaker effect
- Level of lipid, free fatty acid and blood glucose compared with vehicle group [6]: significantly decreased

Compound: [2H]C([2H])(Cc1nc(-c2ccccc2)oc1C)Oc1ccc(C[C@H](OC)C(=O)O)c2sccc12 [free acid Form D]
- Form after storage [7]: converted to free acid Form E

Compound: CO[C@@H](Cc1ccc(OCCc2nc(-c3ccccc3)oc2C)c2ccsc12)C(=O)O [Aleglitazar, aleglitazar]
- Serum NEFA compared with the vehicle group [2]: significantly reduce
- Serum TG compared with the vehicle group [2]: significantly reduce
- serum TG, significance compared with the first group (vehicle), One-way ANOVA [2, 9]: * (*p < 0.05)
- serum TG, significance compared with the first group (vehicle), One-way ANOVA [2, 10]: **** (****p < 0.0001)
- Total score of renal focal lesions compared to the model group [3]: did not achieve statistically significant improvement
- Blood sugar and blood lipid levels [8]: effectively reduce blood sugar and blood lipid levels
- Heart failure risk [8]: a certain degree of heart failure risk
- Weight Gain (g) compared with Day 0 [4, 11]: 0.48 ± 0.27 g
- Weight Gain (g) compared with Day 0 [4, 12]: 1.66 ± 0.39 g
- Weight Gain (g) compared with Day 0 [4, 13]: 2.62 ± 0.42 g
- Weight Gain (g) compared with Day 0 [4, 14]: 3.50 ± 0.42 g
- Weight Gain (g) compared with Day 0 [4, 15]: 3.92 ± 0.4 g
- Weight Gain (g) compared with Day 0 [4, 16]: 4.81 ± 0.37 g
- Weight Gain (g) compared with Day 0 [4, 17]: 5.39 ± 0.56 g
- Weight gain, significance compared with vehicle, One-way ANOVA ([4]; 0.2 mg/kg, Day 4): * (* p < 0.05)
- Daily average weight gain compared with the vehicle group ([4]; 0.2 mg/kg, Day 4 and Day 5): significantly higher
- Weight gain, significance compared with vehicle, One-way ANOVA ([4]; 0.2 mg/kg, Day 5): * (* p < 0.05)
- Weight Gain (g) compared with Day 0 [4, 18]: 0.5 ± 0.2 g
- Weight Gain (g) compared with Day 0 [4, 19]: 1.64 ± 0.26 g
- Weight Gain (g) compared with Day 0 [4, 20]: 2.61 ± 0.51 g
- Weight Gain (g) compared with Day 0 [4, 21]: 3.33 ± 0.54 g
- Weight Gain (g) compared with Day 0 [4, 22]: 3.86 ± 0.49 g
- Weight Gain (g) compared with Day 0 [4, 23]: 4.98 ± 0.52 g
- Weight Gain (g) compared with Day 0 [4, 24]: 5.34 ± 0.50 g
- Daily average weight gain compared with the vehicle group ([4]; 1 mg/kg, Day 6): significantly higher
- Weight gain, significance compared with vehicle, One-way ANOVA ([4]; 1 mg/kg, Day 6): * (* p < 0.05)
- OGTT AUC0-120 min compared with the vehicle group [5, 25]: significantly lower
- OGTT blood glucose levels at each time point compared with the vehicle group [5]: significantly reduced
- Serum TG levels compared with the vehicle group ([6]; Day 6 and Day 12): significantly lower
- Random blood glucose reduction compared with the vehicle group ([6]; Day 7, 0.2 mg/kg): reached statistical significance
- Average daily body weights compared with the vehicle group [6]: significantly higher
- Level of lipid, free fatty acid and blood glucose compared with vehicle group [6]: significantly decreased
